Laboratory results as given in patent US7645776B2, “Heteroaryl substituted piperidine derivatives which are L-CPT1 inhibitors” (Hoffmann-La Roche Inc., priority 2005, dated 2010).

The compounds below were run against T1, liver carnitine palmitoyl transferase 1 (L-CPT1) (Homo sapiens, UniProt P50416) (assay: L-CPT1 inhibition, spectrophotometric DTNB (Ellman's reagent) CPT activity assay).
T1 construct: made in house; host or cells: Pichia pastoris strain X-33 (crude cell-free extract)
T1 sequence (P50416 1-773): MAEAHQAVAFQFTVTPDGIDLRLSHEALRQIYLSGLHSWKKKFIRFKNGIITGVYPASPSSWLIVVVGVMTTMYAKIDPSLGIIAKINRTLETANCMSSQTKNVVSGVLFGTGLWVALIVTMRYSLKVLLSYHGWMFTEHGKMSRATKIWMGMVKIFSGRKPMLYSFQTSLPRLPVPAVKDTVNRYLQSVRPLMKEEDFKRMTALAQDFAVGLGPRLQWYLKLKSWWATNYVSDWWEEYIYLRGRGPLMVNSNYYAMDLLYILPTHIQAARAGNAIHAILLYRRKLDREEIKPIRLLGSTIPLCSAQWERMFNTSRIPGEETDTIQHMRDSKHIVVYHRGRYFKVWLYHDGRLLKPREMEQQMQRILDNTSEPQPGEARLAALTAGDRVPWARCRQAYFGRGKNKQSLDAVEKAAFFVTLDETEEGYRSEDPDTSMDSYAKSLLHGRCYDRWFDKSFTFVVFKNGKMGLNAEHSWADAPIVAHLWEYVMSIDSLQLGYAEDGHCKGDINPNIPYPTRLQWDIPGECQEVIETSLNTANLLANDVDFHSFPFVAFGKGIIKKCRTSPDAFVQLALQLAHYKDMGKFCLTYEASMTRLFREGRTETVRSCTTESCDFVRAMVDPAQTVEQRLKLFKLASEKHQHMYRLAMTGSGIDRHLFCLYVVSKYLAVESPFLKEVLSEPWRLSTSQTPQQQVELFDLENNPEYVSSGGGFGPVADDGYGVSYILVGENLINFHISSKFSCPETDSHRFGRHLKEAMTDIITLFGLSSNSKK
Type: biochemical
Description: The following tests were carried out in order to determine the activity of the compounds of the present invention. Background information on the performed assays can be found in: Jackson et al., 1999, Biochem. J. 341, 483-489 and Jackson et al., 2000, J. Biol. Chem. 275, 19560-19566.
Human liver and muscle CPT1 cDNAs and rat CPT2 cDNA were subcloned in pGAPZB or pGAPZA, respectively. These plasmids were used to transform P. pastoris strain X-33 via electroporation after the preparation of electrocompetent cells. High copy number clones were selected where necessary using 0.5 or 1 mg/ml Zeocin. Cultures for activity measurements were induced for 16 h in YPD medium (1% yeast extract, 2% peptone, 2% glucose). Crude cell extracts were prepared by disrupting the cells with glass beads or French Press, depending on fermenter sizes. After centrifugation, the cell-free extracts were resuspended in cell breaking buffer (50 mM Tris, pH7.4, 100 mM KCl, 1 mM EDTA) in the presence of a protease inhibitor cocktail, before aliquoting and freezing at −20° C.
CPT activity was measured using a spectrophotometric assay using 5,5′-dithio-bis-(2-nitrobenzoic acid) (DTNB) also called Ellman's reagent. The HS-CoA released on the formation of acylcarnitine from carnitine (500 μM) and palmitoyl-CoA (80 μM) reduced DTNB (300 μM) forming 5-mercapto-(2-nitrobenzoic acid) which absorbed at 410 nm with a molar coefficient extinction of 13600 M^−1.cm^−1. The assay buffer contained 120 mM KCl, 25 mM Tris, pH 7.4, 1 mM EDTA. This assay was used for the identification of selective inhibitors of the liver CPT1 isoform versus the muscle CPT1 and CPT2 isoforms.

Row | IC50 [nM] | Compound
1 | 260 | O=C(COc1ccccc1)N1CCCC[C@@H]1c1nc(-c2ccc(F)cc2)no1 [Example 10, (R)-1-{2-[3-(4-Fluoro-phenyl)-[1,2,4]oxadiazol-5-yl]-piperidin-1-yl}-2-phenoxy-ethanone]
2 | 66 | COc1ccc(-c2noc([C@H]3CCCCN3C(=O)COc3ccccc3)n2)cc1 [Example 1, (R)-1-{2-[3-(4-Methoxy-phenyl)-[1,2,4]oxadiazol-5-yl]-piperidin-1-yl}-2-phenoxy-ethanone]

Row | Compound | IC50 [nM]
3 | COc1ccc(-c2n[nH]c([C@H]3CN(C)CCN3C(=O)COc3ccccc3)n2)cc1 [Example 172, (R)-1-{2-[5-(4-Methoxy-phenyl)-2H-[1,2,4]triazol-3-yl]-4-methyl-piperazin-1-yl}-2-phenoxy-ethanone] | 242
